# Legend:
# [1] = system: PTHrP; experiment: Tumoral PTHrP production by immunohistochemistry of primary tumors; format: in vivo, male Copenhagen rats
# Description: Histologic Analysis. For immunohistological analysis, primary tumor samples were dewaxed by heating at 60° C. and rehydrated in a graded alcohol series (100%-70%). Anti-rat antibody against PTHrP was used as the primary antibody. Tumor sections were incubated overnight at 4° C. followed by further incubation with biotinylated universal antibody (Vector Laboratories, Burlingame, Calif.) for 45-60 minutes. Sections were rinsed with TBST (Tris buffered saline-Tween) followed by incubation with Vectastain ABC-AP Reagent (Vector Laboratories, Burlingame, Calif.) for 30 minutes. These sections were again washed with TBST and incubated with a Napthol AS-Mix Phosphate/Fast Red solution (Sigma-Aldriche, Oakville, ON). The sections were finally counterstained with Methyl Green (Vector Laboratories, Burlingame, Calif.) and mounted.
# Alternatively, paraffin embedded tumor samples were cut into 5 um-thick sections for immunohistochemical analysis. […]
# Tumors from control group treated with vehicle alone and experimental groups treated with different doses of PSP-94 (0.1-10.0 μg/kg/day) were excised, paraffin embedded, and sectioned and analyzed for tumoral PTHrP production by immunohistochemical reaction specific for PTHrP using method described herein. […] Three animals were present in each group and three tumor sections were analyzed for each animal by evaluating at least ten random fields of observation.
# Primary tumors from control vehicle treated animals and animals treated with the highest dose of PCK3145 (100.0 ug/kg/day) were removed, paraffin embedded, and sectioned. […] Therefore, tumors from control group treated with vehicle alone and experimental group treated with the highest dose of PCK3145 (100.0 ug/kg/day) were excised and analyzed for tumoral PTHrP production by immunohistochemical analysis. […] No reaction was seen when these tumors were evaluated for background reaction in the absence of PTHrP antibody (NC).
# [2] = system: PTHrP; experiment: Plasma PTHrP radioimmunoassay in tumor bearing animals; format: in vivo, male Copenhagen rats
# Description: Control animals received PBS alone as vehicle control.
# Other Analytical Methods. Plasma calcium levels were determined by atomic absorption spectrophotometry (model 703, Perkin-Elmer, Norwalk, Conn.). For plasma PTHrP, all samples were tested in two dilutions in PTHrP radio-immunoassay (R.I.A.) kit (Nichols Institute Diagnostics, San Juan Capistrano, Calif.) according to manufacturer's instructions.
# Comparison was made between plasma collected from normal, non-tumor bearing animals (N), control tumor bearing animals receiving vehicle alone (CTL) and plasma collected from experimental animals receiving different doses of PSP-94 (0.1-10.0 ug/kg/day). Plasma calcium levels were determined by atomic absorption spectrophotometry (model 703, Perkin-Elmer, Norwalk, Conn.). For plasma PTHrP, all samples were tested in two dilutions in PTHrP R.I.A. kit (Nichols Institute Diagnostics, San Juan Capistrano, Calif.) according to manufacturers instructions.
# FIGS. 10A and 10B show male Copenhagen rats inoculated s.c. with 10^6 Mat Ly Lu-PTHrP cells. Following 3 days of tumor cell inoculation, animals were treated with vehicle alone (Ctl) or different doses (1.0, or 10.0 ug/kg/day) of PSP-94 for 18 days. Animals were sacrificed on day 21 and plasma PTHrP (FIG. 10A; expressed in picomole equivalents/liter) or plasma calcium (FIG. 10B; expressed in millimolar (mM)) levels were determined. Results for non-tumor bearing animals are also shown (N).
# Comparison was made between plasma collected from normal, non-tumor bearing animals, control tumor bearing animals receiving vehicle alone and experimental animals receiving different doses of PCK3145 (1.0-100.0 ug/kg/day). […] Plasma PTHrP levels in normal non-tumor bearing animals are also shown (N).
Molecule,"tumoral PTHrP production (PTHrP immuno-staining) ([1]; 100.0 ug/kg PCK3145, relative to lower doses)","tumoral PTHrP production (PTHrP immuno-staining) ([1]; different doses of PCK3145 (data not shown), vs vehicle)","plasma PTHrP levels ([2]; PCK3145 1.0-100.0 ug/kg/day, day 16, vs vehicle)","tumoral PTHrP production (PTHrP immunostaining) ([1]; PSP-94 0.1-10.0 ug/kg/day, vs vehicle)",plasma PTHrP levels ([2]; 10.0 ug/kg/day PSP-94),"plasma PTHrP levels ([2]; PSP-94 0.1-10.0 ug/kg/day, day 16, vs vehicle)"
E W Q T D N C E T C T C Y E T (EWQTDNCETCTCYET; PCK3145 (polypeptide 31-45)),most pronounced,dose dependent decrease,dose-dependent decrease,,,
PSP-94: prostate secretory protein of 94 amino acids; native human seminal plasma PSP-94 (protein) SCYFIPNEGVPGDSTRKCMDLKGNKHPINSEWQTDNCETCTCYETEISCCTLVSTPVGYDKDNCQRIFKKEDCKYIVVEKKDPKKTCSVSEWII,,,,same dose-dependent decrease,near normalization,dose-dependent decrease

# Source: patent publication US20050026833A1, “PSP-94: use for treatment of hypercalcemia and bone metastasis” (priority 2001, published 2005)
